Test results reported in ChEMBL document CHEMBL4184174 (Bioorg Med Chem Lett, 2018).

Experiments:
[1] = molecular target: T1, Alkaline phosphatase, tissue-nonspecific isozyme (Homo sapiens, UniProt P05186); assay: Inhibition of TNAP (unknown origin) using PPi as substrate
T1 sequence (P05186 whole entry): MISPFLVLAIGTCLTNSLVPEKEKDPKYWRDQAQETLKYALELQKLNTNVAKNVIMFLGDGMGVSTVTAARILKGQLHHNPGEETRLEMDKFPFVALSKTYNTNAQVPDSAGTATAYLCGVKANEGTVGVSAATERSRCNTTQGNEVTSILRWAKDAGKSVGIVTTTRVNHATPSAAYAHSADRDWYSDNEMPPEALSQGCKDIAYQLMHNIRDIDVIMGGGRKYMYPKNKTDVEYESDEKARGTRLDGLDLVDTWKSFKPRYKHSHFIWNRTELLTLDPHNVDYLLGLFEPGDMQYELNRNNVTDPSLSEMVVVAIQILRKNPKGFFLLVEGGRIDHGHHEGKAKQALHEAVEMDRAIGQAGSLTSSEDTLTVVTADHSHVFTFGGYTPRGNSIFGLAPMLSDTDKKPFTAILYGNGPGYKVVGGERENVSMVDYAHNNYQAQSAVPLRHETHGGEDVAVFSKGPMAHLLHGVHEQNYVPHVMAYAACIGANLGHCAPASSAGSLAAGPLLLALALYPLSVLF

[2] = molecular target: T1, Alkaline phosphatase, tissue-nonspecific isozyme; assay: Inhibition of TNAP (unknown origin) in whole blood using pNPP as substrate
[3] = Clearance in mouse plasma at 2 mg/kg, iv; assay type: ADME, organism-based
[4] = Volume of distribution in mouse at 2 mg/kg, iv; assay type: ADME, organism-based; conditions: in vivo
[5] = Cmax in mouse at 10 mg/kg, po; assay type: ADME, organism-based; set-up: dose 10 mg/kg, route oral; conditions: in vivo
[6] = (§1) AUC in mouse at 10 mg/kg, po; assay type: ADME, organism-based; conditions: in vivo
[7] = Half life in mouse at 10 mg/kg, po; assay type: ADME, organism-based; conditions: in vivo
[8] = test system: Mus musculus; assay: Oral bioavailability in mouse at 10 mg/kg; assay type: ADME, organism-based; conditions: in vivo
[9] = test system: Mus musculus; assay: as §1; assay type: ADME, organism-based; conditions: in vivo
[10] = test system: Mus musculus; assay: In vivo inhibition of TNAP in mouse plasma at 10 mg/kg, po administered as single dose after 8 hrs relative to control; assay type: functional
[11] = test system: Mus musculus; assay: In vivo inhibition of TNAP in mouse plasma at 10 mg/kg, po administered as single dose measured at 24 hrs relative to control; assay type: functional
[12] = molecular target: Intestinal-type alkaline phosphatase (Homo sapiens, UniProt P09923); assay: Inhibition of IAP (unknown origin)
Chain of Intestinal-type alkaline phosphatase (P09923 whole entry): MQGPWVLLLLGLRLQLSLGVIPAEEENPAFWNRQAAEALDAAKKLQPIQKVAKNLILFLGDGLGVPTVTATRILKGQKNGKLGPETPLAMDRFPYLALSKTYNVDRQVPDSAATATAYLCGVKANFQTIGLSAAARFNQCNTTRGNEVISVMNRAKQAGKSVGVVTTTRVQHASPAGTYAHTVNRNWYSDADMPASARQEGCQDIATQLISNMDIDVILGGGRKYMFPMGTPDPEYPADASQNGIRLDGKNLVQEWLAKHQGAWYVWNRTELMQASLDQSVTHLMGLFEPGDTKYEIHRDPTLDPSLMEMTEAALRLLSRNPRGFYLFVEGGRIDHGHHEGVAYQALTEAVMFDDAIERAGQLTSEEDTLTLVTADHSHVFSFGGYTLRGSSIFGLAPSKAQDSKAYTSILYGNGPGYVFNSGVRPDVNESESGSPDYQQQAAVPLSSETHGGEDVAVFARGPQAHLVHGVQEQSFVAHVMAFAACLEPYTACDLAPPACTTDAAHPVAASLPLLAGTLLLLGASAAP

[13] = molecular target: Alkaline phosphatase, placental type (Homo sapiens, UniProt P05187); assay: Inhibition of PLAP (unknown origin)
Chain of Alkaline phosphatase, placental type (P05187 whole entry): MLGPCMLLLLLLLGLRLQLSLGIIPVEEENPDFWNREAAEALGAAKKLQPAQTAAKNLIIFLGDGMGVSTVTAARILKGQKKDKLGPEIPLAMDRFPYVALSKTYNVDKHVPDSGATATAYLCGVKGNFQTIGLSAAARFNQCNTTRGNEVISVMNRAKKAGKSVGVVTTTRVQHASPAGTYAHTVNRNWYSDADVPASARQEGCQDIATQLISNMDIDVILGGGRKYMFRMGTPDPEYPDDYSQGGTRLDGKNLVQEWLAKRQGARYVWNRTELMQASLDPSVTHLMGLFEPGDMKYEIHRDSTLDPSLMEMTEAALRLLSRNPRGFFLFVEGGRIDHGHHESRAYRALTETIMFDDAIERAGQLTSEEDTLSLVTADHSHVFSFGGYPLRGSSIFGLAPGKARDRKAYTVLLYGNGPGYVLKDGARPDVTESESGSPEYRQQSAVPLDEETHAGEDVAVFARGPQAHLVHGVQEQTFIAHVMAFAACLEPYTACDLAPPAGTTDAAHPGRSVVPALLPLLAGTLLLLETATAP

Q: Which IC50 [1] does the source give for `COc1ccc(-c2ccccc2)cc1S(=O)(=O)Nc1cccnc1` here?
A: 0.876 µM

Q: And the IC50 [2]?
A: > 20 µM

Q: Which results are given for `COc1ccc(F)cc1S(=O)(=O)Nc1cncc(C(N)=O)c1`?
A: clearance [3]: 1.01 L/h/kg; Vd [4]: 0.88 L/kg; Cmax [5]: 63 µg/mL; AUC [6]: 141 µg·h/mL; half-life [7]: 3.7 h; F [8]: > 100%

Q: With `COc1ccc(Br)cc1S(=O)(=O)Nc1cncc(C(N)=O)c1` as the molecule, how does the Vd [4] read?
A: 0.31 L/kg

Q: And the Cmax [5]?
A: 133 µg/mL

Q: And the AUC [9]?
A: 603 µg·h/mL

Q: What about the half-life [7] of the same molecule?
A: 2.2 h

Q: What about the F [8] of the same molecule?
A: 70%

Q: For `COc1ccc(Cl)cc1S(=O)(=O)Nc1cncc(C(N)=O)c1`, which IC50 [2] is on record?
A: 0.105 µM

Q: What about the Vd [4] of the same molecule?
A: 1.03 L/kg

Q: And the Cmax [5]?
A: 178 µg/mL

Q: And the AUC [9]?
A: 848 µg·h/mL

Q: What about the half-life [7] of the same molecule?
A: 2.3 h

Q: And the F [8]?
A: 58%

Q: What about the inhibition in vivo at 10 mg/kg [10] of the same molecule?
A: > 75%

Q: What about the inhibition in vivo at 10 mg/kg [11] of the same molecule?
A: 50%

Q: What about the IC50 [12] of the same molecule?
A: > 80 µM

Q: And the IC50 [13]?
A: > 80 µM
